{
  "source": "patent US20230257373A1",
  "about": "“QUORUM SENSING INHIBITORS AND METHODS OF USE” (priority 2020, published 2023)",
  "key": {"[1]": {"tested_on": "V. vulnificus protease activity", "assay": "Protease assay (azocasein) in V. vulnificus", "settings": "for IC50: Vibrio vulnificus"}, "[2]": {"tested_on": "PluxC-gfp reporter in V. campbellii", "assay": "PluxC-gfp reporter in V. campbellii strains", "settings": "Vibrio campbellii"}, "[3]": {"biological_target": "T1, V. campbellii LuxR (Vibrio harveyi, UniProt P21308)", "T1 construct": "expressed in transfected cells; host or cells: E. coli DH10B with pKM699 and reporter pJV064", "T1 sequence (P21308 whole entry)": "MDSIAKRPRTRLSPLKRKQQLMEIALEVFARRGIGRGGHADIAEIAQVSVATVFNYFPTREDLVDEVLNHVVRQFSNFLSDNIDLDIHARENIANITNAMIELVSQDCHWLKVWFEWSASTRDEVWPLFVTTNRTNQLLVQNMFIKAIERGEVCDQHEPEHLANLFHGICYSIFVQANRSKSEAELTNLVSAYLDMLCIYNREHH", "assay": "E. coli dual-color bioassay (pKM699 LuxR, pJV064 reporter)", "type": "cell-based", "excerpt": "Previously, we developed a bioassay that consists of a dual-color fluorescent reporter plasmid that reports both LuxR activities: the luxCDABE promoter is activated by LuxR and drives expression of gfp, and the VIBHAR_05222 promoter is repressed by LuxR and drives expression of mCherry (van Kessel et al., 2013b) (FIG. 2A). We used this reporter plasmid in an E. coli strain that also contains a plasmid expressing LuxR from its native promoter.\nA bioassay was developed to monitor LuxR function that consists of a dual-color reporter plasmid (pJV064) that reports both activities: the luxCDABE promoter is activated by LuxR and drives expression of gfp, and the 05222 promoter is repressed by LuxR and drives expression of mCherry (van Kessel, Ulrich et al. 2013). This reporter plasmid was used in an E. coli strain that also contains a plasmid (pKM699) expressing LuxR from its native promoter. E. coli cultures containing these two plasmids were grown at 30° C. in LB medium with chloramphenicol (10 μg/ml) and tetracycline (10 μg/ml) to select for the two plasmids. Compounds were added to the cultures at a range of concentrations, and the cultures were incubated for 16 hours shaking at 30° C.\nThe dual-promoter fluorescence reporter assays were performed using E. coli strain DH10B containing two plasmids: 1) plasmid pJV064 containing the PluxC fused to GFP and P05222fused to mCherry to assess LuxR transcriptional regulation, and 2) plasmid pKM699 expressing V. campbellii luxR under control of its native promoter or empty vector pLAFR2."}, "[4]": {"tested_on": "V. vulnificus", "assay": "Growth of V. vulnificus with inhibitor", "type": "cell-based", "settings": "high concentrations", "excerpt": "Many sulfonamide-containing compounds are known to target the folate synthesis pathway in bacteria and inhibit growth (bacteriostatic), and thus these “sulfa drugs” have been used as broad-spectrum antibiotics for decades (Hammoudeh et al., 2013, Roland et al., 1979). […] We also tested the stability of the inhibitors in bacterial cultures and the timing of the inhibitory effect."}, "[5]": {"biological_target": "T1, V. campbellii LuxR", "assay": "qRT-PCR and western blots in wild-type V. campbellii", "type": "cell-based", "excerpt": "The Qstatin-treated regulon overlapped with the SmcR regulon by more than 50%, with similar gene expression fold-changes. […] This is important to note because LuxR and HapR proteins are known to autorepress their own expression. To test the effects of adding inhibitors to V. campbellii LuxR, we added 10A, 10B, and 10C to wild-type V. campbellii and used qRT-PCR and western blots to examine the effects on luxR transcript and protein levels. We also examined the transcript levels for luxC and 05222 genes that are directly activated or repressed by LuxR, respectively.\nAll PCR reactions were performed using Phusion HF polymerase (NEB). T4 polynucleotide kinase (T4 PNK) used in EMSAs and all other enzymes were purchased from NEB and used according to manufacturer's instructions. Site-directed mutagenesis for construction of plasmids expressing mutant proteins was carried out using the Agilent QuikChange II XL Site-Directed Mutagenesis Kit. All oligonucleotides were purchased from Integrated DNA Technologies (IDT).ALL plasmid constructs were confirmed by DNA sequencing (Eurofins). Cloning details for plasmids are available upon request. Western blot analysis was performed as previously described (van Kessel et al., 2013b), except that new anti-LuxR antibodies were generated through Cocalico against purified LuxR protein. In addition, the western blots were probed with anti-RpoB (Neoclone).\nThen cells were induced with 50 μM IPTG and grown under the same conditions until cells reached an OD600 of approximately 1, at which 5 mL of cells were collected by centrifugation and frozen in liquid N2. RNA was extracted using a Trizol/chloroform extraction protocol previously described (Rutherford et al., 2011). Quantitative real-time PCR (qRT-PCR) was performed as previously described (Chaparian et al., 2016). Samples were normalized to the internal standard hfq gene. The ΔΔCT values were used to analyze data from three independent biological replicates. Symbols on graphs represent the mean values and error bars represent the standard deviations. All statistical analysis was performed with functions from GraphPad Prism version 8."}, "[6]": {"biological_target": "SmcR (Vibrio vulnificus, UniProt Q9L8G8)", "sequence (Q9L8G8 entry or part of it)": "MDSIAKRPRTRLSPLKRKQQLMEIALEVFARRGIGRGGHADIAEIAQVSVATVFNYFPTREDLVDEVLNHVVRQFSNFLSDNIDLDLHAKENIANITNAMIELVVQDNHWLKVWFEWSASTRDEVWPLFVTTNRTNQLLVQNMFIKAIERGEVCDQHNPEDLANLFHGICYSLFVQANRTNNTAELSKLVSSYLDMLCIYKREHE", "assay": "ITC analysis of SmcR interaction with inhibitors", "type": "binding, V. vulnificus", "excerpt": "(§1) To test the validity of the modelling predictions for PTSP, we performed isothermal titration calorimetry (ITC) to determine the binding affinity of SmcR and LuxR for PTSP. […] We noted that PTSP binding to both LuxR and SmcR had lower entropy and enthalpy compared to SmcR binding to Qstatin. […] Thus, we conclude that the efficacy of PTSP inhibition in vivo in these two Vibrio species correlates to the binding affinity determined in vitro for these two proteins.\n(§2) SmcR and LuxR were purified as described previously. EMSAs were conducted as described previously using oligonucleotides corresponding to the luxC and vvpE promoter sequences. ITC analysis was conducted using purified LuxR or His-tagged SmcR, each in gel-filtration buffer (25 mM Tris pH 7.5, 300 mM NaCl, 0.5 mM EDTA, 1 mM DTT, 2% DMSO). All molecules analyzed were diluted in the same buffer. The samples were degassed for 10 min by vacuum aspiration. Titrations were performed on a Nano-ITC (TA Instruments). […] Thermograms were analyzed using NanoAnalyze software with the independent binding model."}, "[7]": {"biological_target": "LuxR (Vibrio harveyi, UniProt P21308)", "sequence (P21308 whole entry)": "as the sequence (P21308 whole entry) above", "assay": "ITC analysis of LuxR interaction with inhibitors", "type": "binding, V. campbellii", "design": "made in house; host or cells: E. coli BL21(DE3)", "excerpt": "as §1, §2"}},
  "note": "Where two headings read alike, the source gives them in different places.",
  "data": [
    {"smiles": "O=S(=O)(c1cccs1)n1ccc(-c2ccccc2)n1", "note": "[Compound 10B]", "values": [
      {"measurement": "Protease activity of wild-type strain", "setting": "[1]; 2.5 μM PTSP vs DMSO, V. vulnificus", "value": "significantly reduced protease activity"},
      {"measurement": "IC50", "setting": "[1]; ATCC27562, read-out: IC50 of protease inhibition, V. vulnificus ATCC 27562", "value": 6.8, "unit": "nM"},
      {"measurement": "IC50", "setting": "[1]; read-out: IC50 of protease inhibition, V. vulnificus CMPC6", "value": 78.1, "unit": "nM"},
      {"measurement": "IC50", "setting": "[1]; read-out: IC50 of protease inhibition, V. vulnificus YJ016", "value": 18.3, "unit": "nM"},
      {"measurement": "IC50", "setting": "[2]; ATCC25920, read-out: Inhibition (IC50) of the PluxC-gfp reporter, Vcamp ATCC 25920", "value": 30, "unit": "nM"},
      {"measurement": "IC50", "setting": "[2]; read-out: IC50, V. campbellii BB120, luxCDABE", "value": 140, "unit": "nM"},
      {"measurement": "IC50", "setting": "[2]; read-out: IC50, V. campbellii, b235", "value": 350, "unit": "nM"},
      {"measurement": "IC50", "setting": "[2]; read-out: Inhibition (IC50) of the PluxC-gfp reporter, Vcamp HY01", "value": 100, "unit": "nM"},
      {"measurement": "Inhibition of LuxR in the E. coli bioassay (in words)", "setting": "[3]; GFP and mCherry reporters", "value": "most potent"},
      {"measurement": "Time after addition at which GFP production was blocked", "setting": "[3]; addition to the culture", "value": 120, "unit": "min"},
      {"measurement": "Duration for which block of GFP production was maintained", "setting": "[3]; longest timepoint tested", "value": "≥ 16", "unit": "h"},
      {"measurement": "IC50", "setting": "[3]; read-out: IC50 in the bioassay (approximate)", "value": "1000 to 2000", "unit": "nM"},
      {"measurement": "Growth rate or growth yield", "setting": "[4]", "value": "did not alter growth rate or growth yield"},
      {"measurement": "luxC transcripts", "setting": "[5]; qRT-PCR, to levels in a ΔluxR strain", "value": "significantly decreased"},
      {"measurement": "05222 transcripts", "setting": "[5]; qRT-PCR, wild-type cultures", "value": "significantly increased"},
      {"measurement": "LuxR protein level", "setting": "[5]; western blot, wild-type V. campbellii", "value": "visible increase"},
      {"measurement": "Ka", "setting": "[6]", "value": "4.85e+06", "unit": "M⁻¹"},
      {"measurement": "ΔG", "setting": "[6]", "value": -9.092, "unit": "kcal/mol"},
      {"measurement": "ΔH", "setting": "[6]", "value": -33.963, "unit": "kcal/mol"},
      {"measurement": "ΔS", "setting": "[6]", "value": "−348.97", "unit": "J/mol · K"},
      {"measurement": "−TΔS", "setting": "[6]", "value": 24.869, "unit": "kcal/mol"},
      {"measurement": "Kd", "setting": "[6]; 25° C., read-out: Kd", "value": 227, "unit": "nM"},
      {"measurement": "ΔG", "setting": "[6]; listed as PTSP", "value": -9.08, "unit": "kcal/mol"},
      {"measurement": "Kd", "setting": "[6]; read-out: Dissociation constant (Kd)", "value": 230, "unit": "nM"},
      {"measurement": "Ka", "setting": "[7]", "value": "2.3e+06", "unit": "M⁻¹"},
      {"measurement": "ΔG", "setting": "[7]", "value": -8.626, "unit": "kcal/mol"},
      {"measurement": "ΔH", "setting": "[7]", "value": -32.529, "unit": "kcal/mol"},
      {"measurement": "ΔS", "setting": "[7]", "value": "−335.40", "unit": "J/mol · K"},
      {"measurement": "−TΔS", "setting": "[7]", "value": 23.9, "unit": "kcal/mol"},
      {"measurement": "Kd", "setting": "[7]; 25° C.", "value": 513, "unit": "nM"}
    ]}
  ]
}
